Laboratory results reported in US20070196890A1, “Prebiotic effect analysis” (priority 2003, published 2007).

Assays:
Lactobacilli = test: Batch culture fermentation, FISH enumeration; assay type: cell-based, Lactobacillus/Enterococcus spp.; details: 1% (w/v) substrate
Protocol: (§1) Faecal samples are obtained from healthy human volunteers. Volunteers are required not to have been prescribed antibiotics for at least 6 months prior to the study and have no history of gastrointestinal diseases. The samples are collected on site and used immediately following collection. A 1/10 dilution in anaerobic phosphate buffer (0.1 M, pH 7.4) is prepared and the samples homogenised in a stomacher for 2 minutes.
(§2) Sterile, stirred, batch culture fermentation vessels (300 ml volume) are filled with 135 ml basal nutrient medium (peptone water 2 g/l, yeast extract 2 g/l, NaCl 0.1 g/l, K2HPO4 0.04 g/l, KH2PO4 0.04 g/l, MgSO4.7H2O 0.01 g/l, CaCl2.6H2O 0.01, NaHCO3 2 g/l, Tween 80 2 ml, Hemin 0.02 g/l, Vitamin K1 10 μl, Cysteine.HCl 0.5 g/l, Bile salts (sodium glycocholate and sodium taurocholate) 0.5 g/l, pH 7.0) and gassed overnight with oxygen free nitrogen. […] Samples (3 ml) from each vessel are obtained for fluorescence in situ hybridisation (FISH), analysis of SCFA by high performance liquid chromatography (HPLC) and total carbohydrate measurement by assay. […]
(§3) Differences in bacterial populations are assessed through use of FISH with oligonucleotide probes designed to target diagnostic regions of 16S rRNA. […]

E. coli = test: Batch culture fermentation, FISH enumeration; assay type: cell-based, Escherichia coli; details: 1% (w/v) substrate
Description: For total bacterial counts the nucleic acid stain 4,6-diamidino-2-phenylindole (DAPI) is used. […] For each slide at least 15 different fields of view are counted. […]

faecal bacteria [1] = test: Total carbohydrate assay, rate of substrate assimilation, batch culture; assay type: cell-based, human; details: St=S0−Art, S0=1% by weight, exponential phase of bacterial growth
Protocol: A phenol-sulphuric acid assay is used for the determination of total carbohydrate content as expressed in glucose equivalents. The assay is calibrated with D-glucose standards ranging from 0 to 0.15 mgml^−1. Measurements of the absorbance at 450 nm are taken using the spectrophotometer and plotted against the standards. The total carbohydrate content is thus calculated. […] Samples are taken every 2 hours up to […] and then at 15 and 24 hours. […] The rate of assimilation is calculated with the following equation: St=S0−Art […]

Clostridia = test: Batch culture fermentation, FISH enumeration; assay type: cell-based, Clostridium coccoides and Clostridium histolyticum; details: 1% (w/v) substrate
Protocol: as §1, §2, §3

faecal bacteria [2] = test: Measure of the prebiotic effect (MPE), batch culture; assay type: cell-based, human; details: ½√(x²y²+x²z²+y²z²), x=PI (μmax), y=ratio, z=Ar; sign from PI
Description: The three values (PI, Ar and ratio) obtained are used to calculate the MPE value using the following equation: ½√{square root over (x^2y^2+x^2z^2+y^2z^2)}=MPE wherein x=PI (as calculated under paragraph 2.1.2); y=ratio of lactate over total SCFA (as calculated under paragraph 2.2) and z=Ar (as calculated under paragraph 2.3).

Eubacteria = test: Batch culture fermentation, FISH enumeration; assay type: cell-based, Eubacterium rectale; details: 1% (w/v) substrate
Protocol: as §1, §2, §3

faecal bacteria [3] = test: Analysis of SCFA production by HPLC, batch culture; assay type: cell-based, human; details: 1% (w/v) substrate
Protocol: The production of succinic, lactic, formic, acetic, propionic, isobutyric, butyric, isovaleric and valeric acids in the fermentations is quantified by HPLC. Samples are centrifuged at 1500×g for 15 minutes and the resultant supernatant used for injection. A Model 1050 UV HPLC (Hewlett Packard), with an integrated oven compartment (50° C.) and data system is used in combination with a differential refractometer (Knauer). Sample injection is performed using an autosampler and is of 20 μl volume. The column is a pre-packed Aminex HPX-87-H strong cation-exchange resin column (150×7.8 mm I.D.), fitted with an ion exclusion micro-guard refill cartridge (Bio-Rad Labs., USA). The eluent used is 0.005 M sulphuric acid. Faecal samples are incubated with 135 ml basal nutrient medium containing 1% (w/v) substrate in batch culture systems at 37° C. Samples are taken every 2 hours up to 10 hours and then at 15 and 24 hours.

Desulfovibrio spp. = test: Batch culture fermentation, FISH enumeration; assay type: cell-based; details: 1% (w/v) substrate
Protocol: as §1
(§4) Sterile, stirred, batch culture fermentation vessels (300 ml volume) are filled with 135 ml basal nutrient medium (peptone water 2 g/l, yeast extract 2 g/l, NaCl 0.1 g/l, K2HPO4 0.04 g/l, KH2PO4 0.04 g/l, MgSO4.7H2O 0.01 g/l, CaCl2.6H2O 0.01, NaHCO3 2 g/l, Tween 80 2 ml, Hemin 0.02 g/l, Vitamin K1 10 μl, Cysteine.HCl 0.5 g/l, Bile salts (sodium glycocholate and sodium taurocholate) 0.5 g/l, pH 7.0) and gassed overnight with oxygen free nitrogen. Prior to addition of the faecal slurry,0.25%, 0.5% or 1% (w/v) testing substrates are added to different vessels, culture temperature is set at 37° C. by means of a circulating water bath and medium pH is maintained at 6.8 using an Electrolab pH controller. The vessels are inoculated with 15 ml of fresh faecal slurry ( 1/10 w/v) and continuously sparged with O2-free N2 at a flow rate of 15 ml/min. Samples (3 ml) from each vessel are obtained for fluorescence in situ hybridisation (FISH), analysis of SCFA by high performance liquid chromatography (HPLC) and total carbohydrate measurement by assay. Batch cultures are run over a period of 24 hours and samples are obtained every 2 hours up to 12 hours and then at 15 and 24 hours.
(§5) Differences in bacterial populations are assessed through use of FISH with oligonucleotide probes designed to target diagnostic regions of 16S rRNA. These are commercially synthesised and labelled with the fluorescent dye Cy3 (provided by Eurogentec UK Ltd).
(§6) For total bacterial counts the nucleic acid stain 4,6-diamidino-2-phenylindole (DAPI) is used. Samples obtained from fermentation vessels are diluted in 4% (w/v) paraformaldehyde and fixed overnight at 4° C. The cells are then centrifuged at 1500×g for 5 minutes, washed twice with phosphate-buffered saline (PBS; 0.1 M, pH 7.0), resuspended in a mixture of PBS/99% ethanol (1:1 w/v) and stored at −20° C. for at least 1 hour. For Lab 158 probe samples are further resuspended in the enzyme mixture containing agents that increase cell permeability and incubated for 1 hour at 37° C. The cells are then washed in PBS, resuspended in 100% methanol and stored at −20° C. for at least 1 hour. The cell suspension is then added to the hybridisation mixture and left overnight to hybridise at the appropriate temperature for each probe. Hybridized mixture is vacuum filtered using a 0.2 μm Isopore membrane filter (Millipore Corporation, Herts, UK). The filter is removed, placed onto a glass slide with SlowFade (Molecular Probes, Eugan, Oreg., USA) and examined under a fluorescent microscope (Nicon Eclipse, E400). The DAPI stained cells are examined under UV light and hybridised cells viewed using a DM510 filter. […] Samples are taken after 24 hours. […] Microbial counts are presented as log10cells/ml.

Bifidobacterium spp. = test: Batch culture fermentation, FISH enumeration; assay type: cell-based; details: 1% (w/v) substrate
Protocol: as §1, §4, §5, §6

Bacteroides spp. = test: Batch culture fermentation, FISH enumeration; assay type: cell-based; details: 1% (w/v) substrate
Protocol: as §1, §4, §5, §6

OC[C@H]1O[C@@](CO)(O[C@H]2O[C@H](CO)[C@@H](O)[C@H](O)[C@H]2O)[C@@H](O)[C@@H]1O [Sucrose, sucrose]
μmax L (maximum growth rate, lactobacilli) (Lactobacilli): 0.03 h⁻¹ | Lactobacilli microbial counts (Lactobacilli; 24 hours, FISH): 6.7 log10cells/ml | μmax Co (maximum growth rate, Escherichia coli) (E. coli): 0.27 h⁻¹ | E. Coli microbial counts (E. coli; 24 hours, FISH): 7.7 log10cells/ml | Ar (rate of substrate assimilation) (faecal bacteria [1]): 1.4 per hour | Ar (rate of substrate assimilation) (faecal bacteria [1]; listed as sucrose): 1.40 per hour | μmax Cl (maximum growth rate, Clostridium coccoides and Clostridium histolyticum) (Clostridia): 0.22 h⁻¹ | Clostridia microbial counts (Clostridia; 24 hours, FISH): 7.6 log10cells/ml | MPE (measure of the prebiotic effect) (faecal bacteria [2]): −0.6 | μmax E (maximum growth rate, Eubacterium rectale) (Eubacteria): -0.21 h⁻¹ | Eubacteria microbial counts (Eubacteria; 24 hours, FISH): 7.7 log10cells/ml | lactate production (faecal bacteria [3]): low | μmax SRB (maximum growth rate, Desulfovibrio spp) (Desulfovibrio spp.): 0.21 h⁻¹ | Desulfovibrio microbial counts (Desulfovibrio spp.; 24 hours, FISH): 6.7 log10cells/ml | μmax B (maximum growth rate, Bifidobacterium spp) (Bifidobacterium spp.): 0.13 h⁻¹ | Bifidobacteria microbial counts (Bifidobacterium spp.; 24 hours, FISH): 8.0 log10cells/ml | μmax Ba (maximum growth rate, Bacteroides spp) (Bacteroides spp.): 0.11 h⁻¹ | Bacteroides microbial counts (Bacteroides spp.; 24 hours, FISH): 8.1 log10cells/ml
